Reference: patent US11707474B2, “Methods for treating acute myeloid leukemia and related conditions” (GlycoMimetics, Inc., priority 2018, dated 2023)

Legend:
[1] = 5-FU induced mucositis assay; format: in vivo, Mice (C57bl/6); details: 20 mg/kg IP BID 4 days after second 5-FU injection
Experimental: Mice (C57bl/6) were treated with 150 mg/kg of 5-fluorouracil (5-FU) intraperitoneal (IP) on days 0 and 10. After the second injection of 5-FU, the mice were treated with a compound of Formula (I) (20 mg/kg in saline, IP, BID (i.e. 40 mg/kg per day)) or saline alone (0.15 M NaCl) for 4 days. Mice were then sacrificed and the small intestines were removed and weighed to determine the degree of inflammation. […] FIG. 1B illustrates that intestinal erosion, villous loss, and macrophage infiltration after administration of chemotherapy were ameliorated by concurrent administration of a compound of Formula (I).

[2] = Radiation induced mucositis assay; format: in vivo, Mice (C57bl/6); details: 8.0 Gy whole body irradiation; 20 mg/kg IP BID 6 days
Experimental: Mice (C57bl/6) were subjected to whole body irradiation (8.0 Gy) and immediately afterwards treated with a compound of Formula (I) (20 mg/kg in saline, IP, BID (i.e. 40 mg/kg per day)) or saline alone (0.15 M NaCl) for 6 days. The small intestine was removed at day 6 and digested to release cells. The number of CD11b^+F4/80^+ macrophages from the small intestine was determined by flow cytometry (FIG. 2).

KG1 cells = assay: Systemic KG1 AML model survival; format: in vivo, NSG female mice
Experimental: The potential relevance of these in vitro observations was assessed in NSG female mice with pre-existing disseminated KG1 cells and treated with a compound of Formula (I) (40 mg/kg, IP, QD for 14 days), 5-azacytidine (5 mg/kg, IP, administered on days 7, 10, 13, 16, and 19 (5 doses total)), or the combination of both compounds. Under the conditions of the assay, the median survival time of mice treated with saline alone or a compound of Formula (I) was 69.5 and 69 days, respectively (FIG. 9). Administration of a compound of Formula (I) with 5-azacytidine increased median survival time beyond that obtained with 5-azacytidine treatment alone (>104 days versus 88 days; P=0.014, FIG. 9).

[3] = test system: relapsed/refractory type acute myeloid leukemia (AML); assay: Phase 1 clinical outcomes, relapsed/refractory AML, sodium salt infusion with MEC; format: in vivo; details: R/R AML
Experimental: Three cohorts of 6-7 human subjects with relapsed/refractory type acute myeloid leukemia (AML) each received a total of 15 infusions of 5, 10, or 20 mg/kg/dose of the compound of Formula (I), administered as the sodium salt, over 8 days with a nominal infusion duration of 20 minutes. The nominal infusion duration of 20 minutes was constant across cohorts (e.g., a slower infusion rate was used for the administration of the 5 mg/kg/dose arm than for the 10 mg/kg/dose arm). The formulation for the infusion solution was as follows: […]
The first dose of a compound of Formula (I) was administered 24 hours±1 hour prior to the first dose of MEC (mitoxantrone, etoposide, and cytarabine) induction chemotherapy as a sentinel dose to evaluate the effect of the compound of Formula (I) alone (i.e., a single dose of 5, 10, or 20 mg/kg the day before the first chemotherapy day). The compound of Formula (I) was then administered every 12 hours±1 hour on chemotherapy days, starting 2 hours prior to chemotherapy (i.e., 10, 20, or 40 mg/kg per day on chemotherapy days). […] MEC chemotherapy was administered on Days 2-6.
The clinical outcome for each subject was assessed at the time of count recovery following completion of induction chemotherapy. Subjects were assigned to one of four response groups: complete remission (“CR”); complete remission with incomplete count recovery (“CRi”); morphologic leukemia-free state (“MLFS”); persistent disease (“PD”). Complete remission was defined as bone marrow blasts <5%; absence of circulating blasts and blasts with Auer rods; absence of extramedullary disease; ANC ≥1.0×10^9/L and platelets ≥100,000×10^9/L. Complete remission with incomplete recovery was defined as: all CR criteria except for residual neutropenia (<1.0×10^9/L) or thrombocytopenia (<100,000×10^9/L). Morphologic leukemia-free state was defined as: bone marrow blasts <5%; absence of blasts with Auer rods; absence of extramedullary disease; no hematologic recovery required. Persistent disease was defined as: bone marrow blasts >5%.

[4] = test system: relapsed/refractory (R/R) AML; assay: Exposure-response analysis for efficacy; format: in vivo, human; details: 46 R/R AML subjects; 5, 10, 20 mg/kg BID with MEC
Experimental: To generate exposure metrics for the analyses in Example 14 and Example 15, a Pop-PK analysis, based on sampling of plasma concentrations (Cp) of the compound of Formula (I) during induction treatment, was conducted to identify an appropriate PK model, key covariates of the model, and to generate post hoc population PK metrics for all patients sampled for PK. The Pop-PK analysis comprised 59 subjects, 46 subjects diagnosed with relapsed/refractory (R/R) AML who were administered a compound of Formula (I) with MEC chemotherapy and 13 older subjects (aged 60 years or older) with newly diagnosed AML who were administered a compound of Formula (I) with 7+3 chemotherapy. Pop-PK modeling identified a three compartment model with renal function as the only significant covariate.
For Example 14, Exposure-Response (“E-R”) analysis evaluating efficacy measures against PK metrics was conducted using clinical response efficacy data from the 46 R/R AML subjects. R/R AML subjects were administered MEC chemotherapy and 5, 10, and 20 mg/kg of a compound of Formula (I) BID (i.e. 10, 20, and 40 mg/kg per day).
Exposure metrics were generated using the Pop-PK model described above.
Using clinical measures of efficacy described in Example 13 each subject was assigned to one of five clinical response categories: CR, CRi, MLFS, PD, and death. […]

Which results are given for `CC[C@@H]1CC(C(=O)NCCNC(=O)CCOCCOCCOCCOCCOCCOCCOCCOCCOCCOCCOCCOC)C[C@@H](O[C@@H]2O[C@@H](CO)[C@H](O)C(O[C@@H](CC3CCCCC3)C(=O)O)C2NC(C)=O)C1OC1O[C@@H](C)C(O)[C@H](O)[C@@H]1O` (stereo partly shown) [compound of Formula (I)]?
gastrointestinal mucositis as measured by intestinal weight [1]: protects against chemotherapy induced gastrointestinal mucositis; intestinal erosion, villous loss, and macrophage infiltration [1]: ameliorated; CD11b+F4/80+ macrophages in small intestine [2]: decreased migration of inflammatory macrophages to the intestines; median survival time (KG1 cells; 40 mg/kg IP QD 14 days alone): 69 days; median survival time (KG1 cells; 40 mg/kg IP QD 14 days with 5-azacytidine): > 104 days; CR with incomplete recovery (CRi) ([3]; 10 mg/kg/dose): 0 n; Morphologic Leukemia-Free State (MLFS) ([3]; 10 mg/kg/dose): 0 n; CR with incomplete recovery (CRi) ([3]; 20 mg/kg/dose): 0 n; Morphologic Leukemia-Free State (MLFS) ([3]; 20 mg/kg/dose): 0 n; All-Cause Mortality 30 days ([3]; Phase 1): 0 n; CR/CRi Rate: Cytogenetics (SWOG) Favorable risk ([3]; Phase 1): 0 n; CR/CRi Rate: FLT3-ITD mutated ([3]; Phase 1): 0 n; CR/CRi Rate: Relapsed ≥12-<24 months ([3]; Phase 1): 0 n; Partial Remission (PR) ([3]; Phase 1): 0 n; CR Rate: Cytogenetics Favorable risk ([3]; Phase 1 subgroup): 0 n; exposure-response for remission (Fx > IC50, Fx > IC90, Cmax, AUC vs response category) [4]: significant overlap in all exposure-response metrics relating to remission for those subjects attaining CR and those with PD
